The values below are quoted from earlier work in article PMC8596843, “Platinum Cyclooctadiene Complexes with Activity against Gram‐positive Bacteria” (Chemmedchem, 2021).

On the set-up of the data set: method as in PMID 33469147. The following applies: mouse skin infection models, topical; cited from earlier work.

Each structure is given as a SMILES string.

On to `C=C(C)[C@@H]1CCC(C)=C[C@H]1c1c(O)cc(CCCCC)cc1O` [cannabidiol], for which the bacterial load result was “able to reduce bacterial load”.
